Experimental data from US10238688B2, “Combination therapies for bladder cancer” (GENEDIA BIOTECH CO. LTD., priority 2015, dated 2019).

Assays:
Assay type in all cases: cell-based, human
EJ = test: MTT cell survival / IC50, EJ cells
Description: (§1) The clinical grade of the chemotherapeutics (NCI Dictionary of Cancer Terms) was provided by the First Affiliated Hospital of Harbin Medical University: Pirarubicin (Pi, Wanle, Shenzhen), Paclitaxel (Pa, Taiji, Sichuan), Adriamycin (Ad, Pfizer, Jiangsu), Epirubicin Hydrochloride (EH, Haizheng, Zhejiang), Hydroxycamptothecin (Hy, Lishizhen, Hubei), Cisplatin (Ci, Haosen, Jiangsu), Gemcitabine (Ge, Haosen, Jiangsu) and Mitomycin (Mi, Haizheng, Zhejiang). The drug induced cell death was determined by a thiazolyl […] (MTT, 490 nm reading) based cell proliferation assay in the cultured cells following treatment by various concentrations of drugs for 72 hours. The relative chemoresistance to each drug of all cell lines was calculated with the lowest IC50 as a reference. The overall chemoresistance of each cell line was described as “chemoresistance index”, the numerator of the total relative IC50 to all the drugs over the number of drugs to rank the overall resistance state of each cell line to the six chemotherapeutics collectively.
(§2) The relative IC50 (fold) of each drug of all nine cell lines was normalized to the lowest IC50 in the most sensitive cell line (FIG. 2G), to describe the single drug resistance of cell lines. The overall chemoresistance of each cell line, a “chemoresistance index” (the numerator of the total relative IC50 over the number of drugs) (FIG. 2G) were calculated to rank the overall resistance state of each cell line to this six chemotherapeutics.
(§3) Twenty six-drug combinations at the indicated doses were initially generated through a random number generator (using MATLAB MathWorks©, Natick, Mass., U.S.) (The upper half of Table 1). The cell survival (% over the not drug control) of treated cells was determined and then used for a calculation of the average cumulative cell survival (%, ACS: the sum of cell survival (%) per combination divided by the number of cell lines tested). ACS<30% was used to separate the effective from the not-effective combinations.

Heat Shock pathway = test: Cignal Finder dual-luciferase pathway reporter, Heat Shock; parameters: key to Relative activity, Heat Shock reporter: firefly/renilla ratio, background (negative control) subtracted; settings: for Relative activity, Heat Shock reporter: luc/Renluc relative to negative control reporter, single drug at 4 folds vs EH/Ci/Mi combination
Description: (§4) The pathway analysis was performed with Qiagen's Cignal Finder Pathway Reporter Array systems according to the manufacturer's instructions. The pathway-focused dual-luciferase reporter construct was a mixture of an inducible transcription factor responsive firefly luciferase reporter and constitutively expressing renilla construct. Transcriptional response element (TRE) sequence response elements to each specific transcriptional factor triggered by the different signaling pathways are positioned before the TATA box of firefly luciferase reporter gene. The extent of activity of the reporter reflects the level of activity of the particular signaling pathway. CMV controlled renilla expression vector is co-transfected into the cell as an internal control. Non-inducible reporter construct that lacks the transcriptional factor binding sequence and could not be induced by any transcription factors is used as a negative control. Cells transfected with CMV directed firefly luciferase reporter gene serve as a positive control. Briefly, cells seeded in 6-well plates were transfected with Cignal finder pathway arrays according to the manufacturer's instructions (Qiagen). Then cells were seeded onto 96-well plates. […] After 6 h of incubation with the different drugs at 37° C., cells were lysed and a dual luciferase assay (for firefly and renilla luciferase) was performed using a PromegaGloMax 20/20 illuminometer. The firefly luciferase activities were normalized over the renilla luciferase activities after background activity determined by luciferase activities of negative controls was subtracted. A triple test of cell survival under these drug doses was also performed by MTT assay following 18 h incubation at 37° C. […]

Wnt pathway = test: Cignal Finder dual-luciferase pathway reporter, Wnt; parameters: key to Relative activity, Wnt reporter: firefly/renilla ratio, background (negative control) subtracted; settings: for Relative activity, Wnt reporter: luc/Renluc relative to negative control reporter, single drug at 4 folds vs EH/Ci/Mi combination;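 on digitalized pathway activity, Wnt: code −1 means repressed below 0.5-fold of 5637 cells or no-drug control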
Description: The pathway analysis was performed with Qiagen's Cignal Finder Pathway Reporter Array systems according to the manufacturer's instructions. The pathway-focused dual-luciferase reporter construct was a mixture of an inducible transcription factor responsive firefly luciferase reporter and constitutively expressing renilla construct. Transcriptional response element (TRE) sequence response elements to each specific transcriptional factor triggered by the different signaling pathways are positioned before the TATA box of firefly luciferase reporter gene. The extent of activity of the reporter reflects the level of activity of the particular signaling pathway. CMV controlled renilla expression vector is co-transfected into the cell as an internal control. Non-inducible reporter construct that lacks the transcriptional factor binding sequence and could not be induced by any transcription factors is used as a negative control. Cells transfected with CMV directed firefly luciferase reporter gene serve as a positive control. Briefly, cells seeded in 6-well plates were transfected with Cignal finder pathway arrays according to the manufacturer's instructions (Qiagen). Then cells were seeded onto 96-well plates. Ci (6000 ng/mL), Mi (800 ng/mL), or EH (1000 ng/mL) and Ci/Mi/EH combination (Ci, 1500 ng/mL, Mi, 800 ng/mL and EH, 1000 ng/m L) were then added to the cells 24 h post-transfection. After 6 h of incubation with the different drugs at 37° C., cells were lysed and a dual luciferase assay (for firefly and renilla luciferase) was performed using a PromegaGloMax 20/20 illuminometer. The firefly luciferase activities were normalized over the renilla luciferase activities after background activity determined by luciferase activities of negative controls was subtracted. A triple test of cell survival under these drug doses was also performed by MTT assay following 18 h incubation at 37° C. […]

Myc/Max pathway = test: Cignal Finder dual-luciferase pathway reporter, Myc/Max; settings: for Relative activity, Myc/Max reporter: luc/Renluc relative to negative control reporter, single drug at 4 folds vs EH/Ci/Mi combination
Description: as §4

T24 = test: MTT cell survival / IC50, T24 cells
Description: as §1, §2, §3

[1] = Table S3, ng/ml: Pi 40, Pa 160, EH 250, Ci 1500, Mi 200, 1=Ci/Mi, 2=EH/Ci/Mi, 3=Pa/Ci/Mi, 4=Pi/Ci/Mi
[2] = ng/ml: EH 1000, Ci 6000, Mi 800, Pi 160, Pa 640, Ge 20, EH/Ci/Mi regimen

COC12C(COC(N)=O)C3=C(C(=O)C(C)=C(N)C3=O)N1CC1NC12 (centres unmarked) [Mi, [6-Amino-8a-methoxy-5-methyl-4,7-dioxo-1,1a,2,4,7,8,8a,8b-octahydroazireno [2′,3′:3,4]pyrrolo[1,2-a]indol-8-yl]methyl carbamate]
Cell survival (%) (EJ; [1]): 45.2%
Single drug 4X Cell Survival (%) (EJ; [2]): 28.67%
digitalized pathway activity, Heat Shock (Heat Shock pathway; 5637 cells): 0 (null (0) if neither of the above holds)
relative drug trigged pathway activity over the no-drug level, Heat Shock (Heat Shock pathway; 5637 cells): 1.38 fold
Relative activity, Heat Shock reporter (Heat Shock pathway; 5637 cells): 19.47
relative drug trigged pathway activity over the no-drug level, Heat Shock (Heat Shock pathway; Biu87 cells): 4.54 fold
Relative activity, Heat Shock reporter (Heat Shock pathway; Biu87 cells): 8.60
relative drug trigged pathway activity over the no-drug level, Heat Shock (Heat Shock pathway; H-bc cells): 0.3 fold
Relative activity, Heat Shock reporter (Heat Shock pathway; H-bc cells): 1.12
digitalized pathway activity, Heat Shock (Heat Shock pathway; SV-HUC-1 cells): 0 (null (0) if neither of the above holds)
relative drug trigged pathway activity over the no-drug level, Heat Shock (Heat Shock pathway; SV-HUC-1 cells): 1.01 fold
Relative activity, Heat Shock reporter (Heat Shock pathway; SV-HUC-1 cells): 40.00
digitalized pathway activity, Heat Shock (Heat Shock pathway; UM-UC-3 cells): 0 (null (0) if neither of the above holds)
Relative activity, Heat Shock reporter (Heat Shock pathway; UM-UC-3 cells): 4.03
relative drug trigged pathway activity over the no-drug level, Heat Shock (Heat Shock pathway; Um-Uc-3 cells): 0.93 fold
relative drug trigged pathway activity over the no-drug level, Wnt (Wnt pathway; 5637 cells): 1.87 fold
Relative activity, Wnt reporter (Wnt pathway; 5637 cells): 1.63
digitalized pathway activity, Wnt (Wnt pathway; Biu87 cells): 0 (null (0) if neither of the above holds)
relative drug trigged pathway activity over the no-drug level, Wnt (Wnt pathway; Biu87 cells): 1.06 fold
Relative activity, Wnt reporter (Wnt pathway; Biu87 cells): 1.77
digitalized pathway activity, Wnt (Wnt pathway; H-bc cells): 0 (null (0) if neither of the above holds)
relative drug trigged pathway activity over the no-drug level, Wnt (Wnt pathway; H-bc cells): 0.55 fold
Relative activity, Wnt reporter (Wnt pathway; H-bc cells): 0.60
digitalized pathway activity, Wnt (Wnt pathway; SV-HUC-1 cells): 0 (null (0) if neither of the above holds)
relative drug trigged pathway activity over the no-drug level, Wnt (Wnt pathway; SV-HUC-1 cells): 1.29 fold
Relative activity, Wnt reporter (Wnt pathway; SV-HUC-1 cells): 1.60
digitalized pathway activity, Wnt (Wnt pathway; UM-UC-3 cells): 0 (null (0) if neither of the above holds)
Relative activity, Wnt reporter (Wnt pathway; UM-UC-3 cells): 4.06
relative drug trigged pathway activity over the no-drug level, Wnt (Wnt pathway; Um-Uc-3 cells): 1.13 fold
relative drug trigged pathway activity over the no-drug level, Myc/Max (Myc/Max pathway; 5637 cells): 1.97 fold
Relative activity, Myc/Max reporter (Myc/Max pathway; 5637 cells): 21.77
digitalized pathway activity, Myc/Max (Myc/Max pathway; Biu87 cells): 0 (null (0) if neither of the above holds)
relative drug trigged pathway activity over the no-drug level, Myc/Max (Myc/Max pathway; Biu87 cells): 1.16 fold
Relative activity, Myc/Max reporter (Myc/Max pathway; Biu87 cells): 9.49
digitalized pathway activity, Myc/Max (Myc/Max pathway; H-bc cells): 0 (null (0) if neither of the above holds)
relative drug trigged pathway activity over the no-drug level, Myc/Max (Myc/Max pathway; H-bc cells): 0.75 fold
Relative activity, Myc/Max reporter (Myc/Max pathway; H-bc cells): 9.86
digitalized pathway activity, Myc/Max (Myc/Max pathway; SV-HUC-1 cells): 0 (null (0) if neither of the above holds)
relative drug trigged pathway activity over the no-drug level, Myc/Max (Myc/Max pathway; SV-HUC-1 cells): 1.45 fold
Relative activity, Myc/Max reporter (Myc/Max pathway; SV-HUC-1 cells): 160.00
Relative activity, Myc/Max reporter (Myc/Max pathway; UM-UC-3 cells): 22.41
relative drug trigged pathway activity over the no-drug level, Myc/Max (Myc/Max pathway; Um-Uc-3 cells): 0.38 fold
Cell survival (%) (T24; [1]): 51.34%
Single drug 4X Cell Survival (%) (T24; [2]): 19.72%
